Test results from paper PMC6321233, “Cysteines and Disulfide-Bridged Macrocyclic Mimics of Teixobactin Analogues and Their Antibacterial Activity Evaluation against Methicillin-Resistant Staphylococcus Aureus (MRSA)” (Pharmaceutics, 2018).
≈ marks a conversion by molar mass, not a printed value. Like-named read-outs stand apart in the source and are kept apart here.

Assays:
[1] = test system: S. aureus ATCC 29213; test: MIC, broth microdilution, Methicillin-sensitive S. aureus ATCC 29213; format: cell-based, Staphylococcus aureus; conditions: Mueller Hinton broth, 37 °C, 24 h, peptides in DMSO with 0.002% polysorbate 80, 128-0.25 µg/mL two-fold dilutions, no visible growth, runs in triplicate
Description: (§1) For minimum inhibitory concentration (MIC) assays, all peptides were dissolved in DMSO containing 0.002% polysorbate 80. Bacteria was grown in Mueller Hinton broth (Oxoid) in triplicate. All incubations were at 37 °C. Dilutions were carried out in triplicate, and 100 µL of autoclaved Mueller Hinton broth was added to wells 2–11 in a 96-well plate. 200 µL of the peptide was added to well one at a concentration of 128 µg/mL. 100 µL of peptide in well one was taken up and pipetted into well two. The mixture was then mixed via pipetting before 100 µL was taken up and pipetted into well three. This process was repeated up to well 10. Once the peptide was added to well 10, 100 µL was taken up and then discarded, ensuring that well 11 had no peptide present. Thus, the concentrations (in µg/mL) were: 128, 64, 32, 16, 8, 4, 2, 1, 0.5, 0.25, and 0 (no peptide present). Each well was then inoculated with 100 µL of bacteria that had been diluted to an OD 600 nm of 0.1. This was repeated three times. The 96-well plates were then incubated at 37 °C for 24 h. […]
(§2) Antibacterial activity of the teixobactin analogues was assessed against Methicillin-resistant Staphylococcus aureus (MRSA ATCC 33591, MRSA ATCC […]) and Methicillin-sensitive Staphylococcus aureus. The minimum inhibitory concentration was measured using the broth microdiluation method (see Experimental Section 2.4). […]

[2] = test system: MRSA ATCC 700699; test: MIC, broth microdilution, MRSA ATCC 700699; format: cell-based, Staphylococcus aureus; conditions: Mueller Hinton broth, 37 °C, 24 h, peptides in DMSO with 0.002% polysorbate 80, 128-0.25 µg/mL two-fold dilutions, lowest concentration with no visible growth, runs in triplicate
Description: as §1, §2

[3] = test system: MRSA; conditions: introduction, strain not named; cited from earlier work
Description: Brimble et al. have also reported on the synthesis and antibacterial activity of teixobactin analogues by replacing L-allo-enduracididine with isosteres. Furthermore, teixobactin analogues with lipid tails were reported by Jamieson et al ...

[4] = test system: MRSA ATCC 33591; conditions: reference peptides marked with superscript 12 in Table 1; cited from earlier work
Description: MIC: Minimum Inhibitory Concentration in µg/mL; all the MIC runs in triplicate. (-) = Not evaluated. | column: MRSA ATCC 33591

[5] = test system: S. aureus ATCC 29213; conditions: reference peptide marked with superscript 12 in Table 1; cited from earlier work
Description: MIC: Minimum Inhibitory Concentration in µg/mL; all the MIC runs in triplicate. (-) = Not evaluated. | column: S. aureus ATCC 29213

[6] = test system: MRSA ATCC 700699; conditions: reference peptide marked with superscript 12 in Table 1; cited from earlier work
Description: MIC: Minimum Inhibitory Concentration in µg/mL; all the MIC runs in triplicate. (-) = Not evaluated. | column: MRSA ATCC 700699

Row | Compound | activity against MRSA compared with teixobactin (in words) [3] | MIC: Minimum Inhibitory Concentration, MRSA ATCC 33591 [4] | also measured
1 | CN[C@H](CC(C)C)C(=O)N[C@H]1C(=O)N[C@@H](CC(N)=O)C(=O)N[C@H]2C(=O)N[C@H]3C(=O)N[C@H](C(=O)N[C@H](C(=O)O)c4cc(O)cc(O)c4-c4cc3ccc4O)[C@H](O)c3ccc(c(Cl)c3)Oc3cc2cc(c3O[C@@H]2O[C@H](CO)[C@@H](O)[C@H](O)[C@H]2O[C@H]2C[C@](C)(N)[C@H](O)[C@H](C)O2)Oc2ccc(cc2Cl)[C@H]1O [Vancomycin] | – | – | MIC: Minimum Inhibitory Concentration, S. aureus ATCC 29213 [1]: 4 µg/mL (≈ 2.76 µM); MIC: Minimum Inhibitory Concentration, MRSA ATCC 700699 [2]: 2 µg/mL (≈ 1.38 µM)
2 | Ile10-teixobactin | to the same extent as teixobactin | – | –
3 | Leu10-teixobactin | to the same extent as teixobactin | 0.25 µg/mL | MIC: Minimum Inhibitory Concentration, S. aureus ATCC 29213 [5]: 0.062 µg/mL; MIC: Minimum Inhibitory Concentration, MRSA ATCC 700699 [6]: 0.25 µg/mL
4 | Teixobactin | – | 0.25 µg/mL | –
